In patent US20140336187A1, “METHODS FOR TREATING LEISHMANIASIS” (HOWARD UNIVERSITY, priority 2011, published 2014):
“And” between values parts separate entries of the source, which are not always exact repeats. Equal entries are not always repeated.

Key:
L. donovani amastigotes = assay: Antileishmanial activity on L. donovani amastigotes (resazurin assay); assay type: cell-based, Leishmania donovani; settings: for IC50: Leishmania donovani, L. donovani amastigotes, 48 hrs exposure, resazurin assay, means ± S.E., read-out: IC50 (μM) Amastigotes; for SI Values Amastigotes: SI = IC50 (mouse fibroblast) ÷ IC50 (amastigotes)
Description: Amastigotes were grown in MAA/20 medium (Amastigote medium consisted of: M199 medium supplemented with 0.5% Tryptone broth, 0.01 mM bathocuproinedisulfonic acid, 0.108 mM L-Cysteine, 15 mM D-glucose, 0.685 mM L-glutamine, and 0.025 mM Hemin and 20% fetal calf serum (FCS) at a pH of 5.5).
Amastigotes were plated at a concentration of 2×10^5 cells/[…] 24 hrs before treatment with various compounds. Amastigotes were treated with dilutions of compounds in 96-well microtitre plates. Dilutions of compounds ranging from 0.03 μM to 44 μM were prepared and added to amastigotes. Amastigotes were exposed to compounds for 48 hrs and were incubated at 37° C. […] After the incubation period, 20 μl Alamar Blue (12.5 mg resazurin dissolved in 100 ml distilled water) (Mikes and Steverding, 2000) were added to each well and plates were incubated for another 2 hrs. […] Decrease of fluorescence (inhibition) was expressed as percentage of the fluorescence of control cultures and was plotted against the concentrations of compounds. The IC50 values were calculated from the sigmoidal inhibition curves. Amphotericin B was used as a reference drug.

[1] = tested on: NIH 3T3 BALB/c mouse fibroblast cell line; assay: Cytotoxic assessment on NIH 3T3 BALB/c mouse fibroblasts (resazurin assay); settings: read-out: IC50 (μM) Fibroblasts; NIH 3T3 BALB/c mouse fibroblasts; 48 hrs; resazurin assay; means ± S.E.
Description: Fibroblasts cells (4×10^4 cells/nil and adding 100 μl per well) were incubated with different concentrations of the naphthoquinone compounds (FIGS. 1) (3, 7, 13, 29, 33, and 44 μM) for 48 hrs after which viability of live fibroblast cells was determined by the Resazurin Method using a microplate reader (Bio-Tek Instruments EL311).
NIH 3T3 mouse fibroblasts were maintained in Roswell Park Memorial Institute (RPMI) medium supplemented with 10% Fetal calf serum, 50 units/ml penicillin, 50 units/ml streptomycin B in a humidified incubator at 37° C. in the presence of 5% CO2 (Scala et al., 2010).
Assays were performed to assess the cytotoxicity of these compounds in 96-well microtiter plates, with each well containing 100 μl of RPMI medium supplemented with 10% bovine calf scrum with 50 U/ml Pen-Strep. The cells were plated at a concentration of 4×10^3 cells/well (4×10^4 cells/ml). Fibroblast cells were then incubated with compounds for 48 hrs and inspected under an inverted microscope to assure growth of the controls and sterile conditions. 10 μl of resazurin solution (12.5 mg resazurin dissolved in 100 nil distilled water) were added to each well and the plates were incubated for another 2 hrs. The plates were read with a microplate reader at 570 nm. Experiments were done at least 3 times in triplicates (Scala et al., 2010).
Cell viability was determined using Resazurin Assay. The IC50 values were calculated and expressed as means±S.E (standard error).

[2] = tested on: L. donovani promastigotes; assay: Dose and time-dependent inhibitory effect on L. donovani promastigotes (2, 4, 6, 24 hours exposure); assay type: cell-based, Leishmania donovani; settings: Leishmania donovani, promastigotes, means ± S.E.
Description: (§1) The Leishmanicidal properties of fifteen naphthoquinone compounds (FIG. 1) on L. donovani promastigotes proliferation were assessed by the resazurin cell viability assay. Promastigotes from axenic culture were harvested during the exponential phase of growth (at least 5-day old culture), incubated at a concentration of 2×10^5 cells/200 μl with and without dilutions of compounds in 96-well microtitre plates. Dilutions of compounds covering 0.03 μM to 44 μM were prepared. […] 20 μl Alamar Blue (12.5 mg resazurin dissolved in 100 ml distilled water (Sigma #R7017)) (Mikes and Steverding, 2000) were added to each well and plates were incubated for another 2 hrs. […] Decrease in fluorescence (inhibition), were expressed as percentage of the fluorescence of control cultures and were plotted against the concentrations of compounds. The IC50 values were calculated from the sigmoidal inhibition curves.
A time and dose-dependent inhibitory effect of all 15 imido-substituted naphthoquinone compounds was assessed on their activity on promastigotes of L. donovani. Promastigotes were plated in 96-well plates and incubated in different concentrations of each compound (0.03 to 44 μM), incubated for two hours and viabilities assayed by the resazurin assay. A two hour exposure was assessed by calculation of IC50 values of each compound. Values are means±S.E. (Standard Error).
(§2) A time and dose-dependent inhibitory effect of all 15 imido-substituted naphthoquinone compounds was assessed on their activity on promastigotes of L. donovani. Promastigotes were plated in 96-well plates and incubated in different concentrations of each compound (0.03 to 44 μM), incubated for four hours and cell viabilities assayed by the resazurin assay. A four hour exposure was assessed by calculation of IC50 values of each compound. Values are means±S.E. (Standard Error).
Promastigotes were plated in 96-well plates and incubated in different concentrations of each compound (0.03 to 44 μM), incubated for six hours and cell viabilities assayed by the resazurin assay. A six hour exposure was assessed by calculation of IC50 values of each compound. Values are means±S.E. (Standard error).
as §2, with “incubated for twenty four hours” for “incubated for four hours”, “assay. A twenty four hour” for “assay. A four hour”

[3] = tested on: L. donovani promastigotes; assay: Antileishmanial activity on L. donovani promastigotes (resazurin cell viability assay); assay type: cell-based, Leishmania donovani; settings: for IC50: L. donovani promastigotes, resazurin assay, 0.03 to 44 μM, means ± S.E. of three experiments, read-out: IC50 (μM) Promastigotes; for SI Values Promastigotes: SI = IC50 (mouse fibroblast) ÷ IC50 (promastigotes)
Description: Approximately 5×10^5 promastigotes/ml of L. donovani Khartum strain were inoculated into Yeager's Liver infusion tryptose (YLIT) medium or Brain Heart Infusion (BHI) broth (Difco), supplemented with glucose (2.5 mg/ml), 50 U/ml Pen-Strep and 0.005 mM Hemin at 25-26° C. and subcultured bi-weekly, Mikus et al., Parasitol Int., 48(3):265-9 (2000) (Mikus and Steverding, 2000).
as §1

[4] = read-out: Antileishmanial Activity IC50 (μM) 2 hours, 2 hours exposure
[5] = read-out: Antileishmanial Activity IC50 (μM) 4 hours, 4 hours exposure
[6] = 6 hours exposure, read-out: Antileishmanial Activity IC50 (μM) 6 hours
[7] = 24 hours exposure, read-out: Antileishmanial Activity IC50 (μM) 24 hours

Structure (SMILES) | IC50 (L. donovani amastigotes) | SI Values Amastigotes (L. donovani amastigotes) | IC50 [1] | melting point | IC50 [2, 4] | IC50 [2, 5] | IC50 [2, 6] | IC50 [2, 7] | IC50 ([3]; Leishmania donovani) | SI Values Promastigotes [3] | IC50 [3]
O=C1C(Br)=C(N(C(=O)c2ccccc2Cl)C(=O)c2ccccc2Cl)C(=O)c2ccccc21 [IMDNQ5, N-(3-Bromo-1,4-dioxo-1,4-dihydronaphthalen-2-yl)-2-chloro-N-(2-chlorobenzoyl)-benzamide] | 4.67 µM | 1.01±0.21 and 1.01 | 4.7 µM | 232 to 234 °C | 19 ± 1.5 µM | 0.57 µM | 1.66 ± 0.5 µM | 5.85 ± 2.2 µM | 31.3 µM | 0.15 and 0.15±0.3 | 
COc1cc(C(=O)N(C(=O)c2cc(OC)c(OC)c(OC)c2)C2=C(Cl)C(=O)c3ccccc3C2=O)cc(OC)c1OC [IMDNQ11, 2-bis-(3,4,5-trimethoxybenzoyl)amino-3-chloro-1,4-naphthoquinone] | 27.3 µM |  | 6.41 ± 2.9 µM | 171 to 172 °C | 198 ± 16.8 µM | 22.7 ± 14.2 µM | 4.06 ± 1.4 µM | 8.82 ± 2 µM | 22.9 ± 0.9 µM | 0.28±0.01 and 0.28 | 11.85 ± 0.001 µM
O=C1C(Cl)=C(N(C(=O)c2ccc(F)cc2)C(=O)c2ccc(F)cc2)C(=O)c2ccccc21 [IMDNQ3, N-(3-Chloro-1,4-dioxo-1,4-dihydronaphthalen-2-yl)-4-fluoro-N-(4-fluorobenzoyl)-benzamide] | 4.1 µM | 6.06±1.77 and 6.06 | 24.8 µM | 284 to 286 °C | 11 ± 12.9 µM | 41.35 ± 0.21 µM | 2.32 ± 1.9 µM | 3.23 ± 5.3 µM | 10.8 µM | 2.30±1.05 and 2.30 | 
O=C1C(Cl)=C(N(C(=O)c2ccc(Cl)cc2)C(=O)c2ccc(Cl)cc2)C(=O)c2ccccc21 [IMDNQ1, 4-Chloro-N-(4-chlorobenzoyl)-N-(3-chloro-1,4-dioxo-1,4-dihydronaphthalen-2-yl)-benzamide] | 11.8 ± 9.7 µM | 0.35±0.42 and 0.35 | 4.1 ± 3.5 µM | 212 to 213 °C | 5.53 ± 0.3 µM | 1100 ± 50.3 µM | 19.2 ± 18.4 µM | 5.28 ± 1.8 µM | 1.84 ± 0.9 µM | 2.23±1.09 and 2.23 | 
COc1ccc(C(=O)N(C(=O)c2ccc(OC)cc2)C2=C(Cl)C(=O)c3ccccc3C2=O)cc1 [IMDNQ9, 2-bis-(4-methoxybenzoyl)amino-3-chloro-1,4-naphthoquinone] | 4.67 ± 0.8 µM | 0.73±0.13 and 0.73 | 3.41 ± 1.1 µM | 283 to 287 °C | 77.3 ± 119 µM | 23.3 ± 9.2 µM | 123 ± 35.1 µM | 7.23 ± 0.7 µM | 5.64 ± 0.9 µM | 0.60±0.08 and 0.60 | 
